Results from patent publication US5004758A, “Water soluble camptothecin analogs useful for inhibiting the growth of animal tumor cells” (priority 1988, dated 1991).
Structures can show the parent of a compound that is named as a salt. Where two headings read alike, the source gives them in different places.

Key:
sc M5076 sarcoma = assay: sc-implanted M5076 sarcoma in mice; format: in vivo, mouse; settings: for Mice without Palpable Tumors: B/ip
Text: (§1) The inoculum varies with the tumor.

in vivo [1] = settings: mouse, ip
[2] = tested on: eight cultured human colon tumor cell lines; assay: Cytotoxicity in series of eight cultured human colon tumor cell lines; format: cell-based
Method: For a brief exposure (2 hours) to the drug, the 50 percent inhibitory concentration ranged from 0.12-2.1 μg/ml.
The cell lines are used and maintained as monolayer cultures in Minimal Essential Media (Grand Island Biological Co., Grand Island, N.Y.) supplemented with 10% fetal calf serum in a 5% CO2 humidified incubator at 37° C. Various concentrations of a Formula (I) compound under sterile conditions were allowed to react for 2 hours followed by aspiration of medium or were exposed continuously. Plates are incubated for 7 days at 37° C. in a CO2 incubator. Medium was aspirated and cells were fixed and stained with ethanol and Geisma stain. The surviving cell population was determined by scanning the plates with an image analyzer. The percent inhibition of proliferation was determined relative to cells incubated in the absence of drug and the 50 percent inhibitory concentration (IC50) was determined by interpolation.

sc colon carcinoma 26 = assay: sc-implanted colon carcinoma 26 in mice; format: in vivo, mouse; settings: for Tumor growth inhibition (TGI): sc Colon 26, B/ip (Days 1, 5, 9 and 13)
Text: as §1

[3] = tested on: sc mammary adenocarcinoma 16/c; assay: in vivo; parameters: species or system mouse; settings: mouse, in vivo
Text: as §1

in vivo [4] = assay: in vivo; parameters: species or system mouse; settings: mouse, in vivo, ip
Text: as §1

ip colon carcinoma 26 = assay: ip-implanted colon carcinoma 26 in mice; format: in vivo, mouse; settings: ip Colon 26, B/ip (Days 1, 5, 9 and 13)
Text: (§2) Tumors used in these studies--P388 leukemia and its doxorbicin--and mitoxanrone-resistant sublines, L1210 leukemia, B16 melanoma, B16 melanoma/F10 subline, M5076 sarcoma and colon carcinoma 26--are maintained by serial transplantation in syngeneic strains of mice. For the leukemias, these tumors are maintained in DBA/2 mice. The M5076 sarcoma, the B16 melanoma and its F10 subline are maintained in C57B1/6 mice and the colon sarcinoma 26 is maintained in BALB/c mice. The leukemias and the M5076 sarcoma are serially transplanted i.p. as ascites cell suspensions while the B16 melanoma lines and the colon carcinoma 26 are serially transplanted as s.c. solid tumors.
(§3) For therapeutic trials, tumors are aseptically removed from donor mice and prepared as suspensions for implantation ip into test animals. The test animals for the colon carcinoma 26 are female BALB/c mice (20-25 gm). The test animals for the other tumor models are syngeneic female F1 hybrid B6D2F1 mice (C57B1/6 x DBA/2). The inoculum level varies with the type of tumor: P388 leukemia is inoculated at 10^6 cells per mouse, L1210 leukemia at 10^5 or 10^6 cells per mouse, M5076 sarcoma at 5×10^6 cells per mouse. For implantation of the B16 melanoma lines and the colon carcinoma 26, s.c. tumors from donor mice are minced and homogenized in loose fitting teflon glass homogenizer to give a tumor brei. The inoculum levels are 0.5 ml of a 10 percent (w:v) brei of the B16 melanoma lines and 0.5 ml of a 5 percent (w:v) brei of colon carcinoma 26. After tumor inoculation, mice randomized to treatment groups comprised of 6-8 mice each. In each experiment, there are three groups of untreated control mice. Drugs are dissolved or suspended in appropriate aqueous vehicles and given by a variety of routes and schedules of administration over a range of dose levels. Animals are housed in shoebox cages and are monitored daily for mortality for 30 (L1210), 45 (P388) or 60 (B16, M5076, colon 26) days.

P388/Mitoxantrone = assay: ip P388/Mitoxantrone multidrug resistant subline in mice; settings: for ILS / NCK (net tumor cell kill): P388/Mitoxantrone, ip, Days 1 and 5
Method: Increase in lifespan (ILS) is based on median survival time of groups of 6 mice. Net tumor cell kill (NCK) is calculated from median survival time by standard methods, since survival time is a linear function of the log tumor cell burden.
For the leukemias, these tumors are maintained in DBA/2 mice. […] The leukemias and the M5076 sarcoma are serially transplanted i.p. as ascites cell suspensions while the B16 melanoma lines and the colon carcinoma 26 are serially transplanted as s.c. solid tumors.
For therapeutic trials, tumors are aseptically removed from donor mice and prepared as suspensions for implantation ip into test animals. […] The test animals for the other tumor models are syngeneic female F1 hybrid B6D2F1 mice (C57B1/6 x DBA/2). The inoculum level varies with the type of tumor: P388 leukemia is inoculated at 10^6 cells per mouse, L1210 leukemia at 10^5 or 10^6 cells per mouse, M5076 sarcoma at 5×10^6 cells per mouse. […] After tumor inoculation, mice randomized to treatment groups comprised of 6-8 mice each. In each experiment, there are three groups of untreated control mice. Drugs are dissolved or suspended in appropriate aqueous vehicles and given by a variety of routes and schedules of administration over a range of dose levels. Animals are housed in shoebox cages and are monitored daily for mortality for 30 (L1210), 45 (P388) or 60 (B16, M5076, colon 26) days.

[5] = tested on: sc Madison lung carcinoma; assay: sc-implanted Madison lung carcinoma in mice; format: in vivo, mouse
Text: as §1

[6] = tested on: ip B16 melanoma/F10 subline; settings: mouse, in vivo; for Increase in lifespan (ILS): ip
Text: as §2, §3

L1210 leukemia cells = assay: cells; format: cell-based, mouse; settings: Mus musculus, L1210, read-out: In Vitro Activity IC50
Method: Cells were exposed continuously upon cloning into medium containing 0.2 percent Noble agar. After incubation at 37° C. in a CO2 incubator for 3 days, colonies were stained with viable cell specific formazan stain and, 24 hours later, were enumerated by a colony counter (Biotran II, New Brunswick Scientific Co., Edison, N.J.) adjusted to identify colonies of more than 50 cells. The concentration which reduced cloning efficiency by 50 percent IC50) was determined by interpolation.

CC[C@@]1(O)C(=O)OCc2c1cc1n(c2=O)Cc2cc3c(CN(C)C)c(O)ccc3nc2-1 [Compound No. 1S, (20 S) 9-Dimethylaminomethyl-10-hydroxycamptothecin Acetate Salt]
TGI at three dose levels at or below a maximally tolerated dose (sc M5076 sarcoma; mouse, in vivo): > 90
Tumor growth inhibition (TGI) (sc M5076 sarcoma; mouse, in vivo, 3.2 mg/kg): 64%
Tumor growth inhibition (TGI) (sc M5076 sarcoma; mouse, in vivo, 5.4 mg/kg): 92%
Tumor growth inhibition (TGI) (sc M5076 sarcoma; mouse, in vivo, 9 mg/kg): 98%
Tumor growth inhibition (TGI) (sc M5076 sarcoma; mouse, in vivo, 15 mg/kg): 100%
Tumor growth inhibition (TGI) (sc M5076 sarcoma; mouse, in vivo, 25 mg/kg): toxic
Increase in Lifespan (ILS) or Inhibition of Tumor Growth (TGI) (sc M5076 sarcoma; mouse, in vivo, sc): 100 % TGI
Mice without Palpable Tumors (sc M5076 sarcoma; sc M5076, 3.2 mg/kg/injection): 2/8
Mice without Palpable Tumors (sc M5076 sarcoma; sc M5076, 5.4 mg/kg/injection): 3/8
Mice without Palpable Tumors (sc M5076 sarcoma; sc M5076, 9 mg/kg/injection): 6/8
Mice without Palpable Tumors (sc M5076 sarcoma; sc M5076, 15 mg/kg/injection): 8/8
prolonged lifespan (sc M5076 sarcoma; sc M5076, ip Days 1, 5, 9 and 13): 31%
MTD (in vivo [1]): 15 mg/kg
IC50 ([2]; 168 h, drug left in medium for full 7-day period, read-out: IC50 values, range over eight lines): 0.0039 to 0.075 µg/mL
IC50 ([2]; brief exposure (2 hours), read-out: 50 percent inhibitory concentration, range over eight lines): 0.12 to 2.1 µg/mL
inhibition of tumor growth at the maximally tolerated dose (sc colon carcinoma 26; mouse, in vivo, sc): > 70
Tumor growth inhibition (TGI) (sc colon carcinoma 26; 5 mg/kg/injection): 39%
Tumor growth inhibition (TGI) (sc colon carcinoma 26; 10 mg/kg/injection): 72%
Tumor growth inhibition (TGI) (sc colon carcinoma 26; 20 mg/kg/injection): toxic
Increase in Lifespan (ILS) or Inhibition of Tumor Growth (TGI) (sc colon carcinoma 26; sc Colon Carcinoma 26, optimal doses and optimal schedules): 72 % TGI
Mice without Palpable Tumors ([3]; 5 mg/kg): 2/8
Tumor growth inhibition (TGI) ([3]; 5 mg/kg): 61%
Mice without Palpable Tumors ([3]; 10 mg/kg): 5/8
Tumor growth inhibition (TGI) ([3]; 20 mg/kg): toxic
Mice without Palpable Tumors ([3]; […]): 1/8
Increase in Lifespan (ILS) or Inhibition of Tumor Growth (TGI) ([3]; sc): 96 % TGI
Tumor growth inhibition (TGI) ([3]; sc): 73
MTD (in vivo [4]): 10 mg/kg
Increase in lifespan (ILS) (ip colon carcinoma 26; 5 mg/kg/injection): 5%
Increase in lifespan (ILS) (ip colon carcinoma 26; 10 mg/kg/injection): 25%
Increase in lifespan (ILS) (ip colon carcinoma 26; 20 mg/kg/injection): toxic
Increase in lifespan (ILS) (ip colon carcinoma 26; 40 mg/kg/injection): toxic
ILS (P388/Mitoxantrone; 3.2 mg/kg): 29%
NCK (net tumor cell kill) (P388/Mitoxantrone; 3.2 mg/kg): 0 log
ILS (P388/Mitoxantrone; 5.4 mg/kg): 57%
NCK (net tumor cell kill) (P388/Mitoxantrone; 5.4 mg/kg): 2.1 log
ILS (P388/Mitoxantrone; 9 mg/kg): 79%
NCK (net tumor cell kill) (P388/Mitoxantrone; 9 mg/kg): 3.6 log
NCK (net tumor cell kill) (P388/Mitoxantrone; 15 mg/kg): 5.7 log
ILS (P388/Mitoxantrone; 25 mg/kg): toxic
sensitivity / resistance of subline (P388/Mitoxantrone; P388/mitoxantrone in mice): retained sensitivity
TGI at the maximally tolerated dose ([5]; mouse, in vivo): 74
Tumor growth inhibition (TGI) ([5]; mouse, in vivo, 1.5 mg/kg): 0%
Tumor growth inhibition (TGI) ([5]; mouse, in vivo, 3 mg/kg): 0%
Tumor growth inhibition (TGI) ([5]; mouse, in vivo, 6 mg/kg): 21%
Tumor growth inhibition (TGI) ([5]; mouse, in vivo, 12 mg/kg): 0%
Mice without Palpable Tumors ([5]; mouse, in vivo, 24 mg/kg): 1/8
Increase in Lifespan (ILS) or Inhibition of Tumor Growth (TGI) ([5]; mouse, in vivo, sc): 85 % TGI
inhibition of tumor growth at the maximally tolerated dose ([5]; mouse, in vivo, sc): > 70
Tumor growth inhibition (TGI) ([5]; sc Madison lung, C/iv (every 3 hours x4 on Days 1, 5 and 9), 0.19 mg/kg/injection): 0%
Tumor growth inhibition (TGI) ([5]; sc Madison lung, C/iv (every 3 hours x4 on Days 1, 5 and 9), 0.38 mg/kg/injection): 41%
Tumor growth inhibition (TGI) ([5]; sc Madison lung, C/iv (every 3 hours x4 on Days 1, 5 and 9), 0.75 mg/kg/injection): 63%
Tumor growth inhibition (TGI) ([5]; sc Madison lung, C/iv (every 3 hours x4 on Days 1, 5 and 9), 1.5 mg/kg/injection): 85%
Tumor growth inhibition (TGI) ([5]; sc Madison lung, C/iv (every 3 hours x4 on Days 1, 5 and 9), 3 mg/kg/injection): toxic
Mice without Palpable Tumors ([5]; sc Madison lung, C/iv, 0.75 mg/kg/injection): 1/8
Mice without Palpable Tumors ([5]; sc Madison lung, C/iv, 1.5 mg/kg/injection): 3/8
increases in lifespan at two lower doses [6]: > 40
Increase in lifespan (ILS) ([6]; 3.2 mg/kg): 37%
Increase in lifespan (ILS) ([6]; 5.4 mg/kg): 63%
Increase in lifespan (ILS) ([6]; 9 mg/kg): 68%
Increase in lifespan (ILS) ([6]; 25 mg/kg): toxic
IC50 (L1210 leukemia cells): 56 nM
